{
  "source": "paper PMC2761383",
  "about": "“Structural and functional characteristics of xenavidin, the first frog avidin from Xenopus tropicalis” (BMC Structural Biology, 2009)",
  "key": {"[1]": {"assay": "Optical biosensor analysis (Biacore X) of 2-iminobiotin binding", "from_the_text": "The Biacore X optical biosensor instrument was used in the analysis, where the CM5 sensor chip was functionalized with 2-iminobiotin. The functionalization of the chip was done in three phases: First, the carboxymethyl dextrane was activated using a mixture containing 0.2 M EDC (1-ethyl-3-(3-dimethylaminopropyl) carbodiimide hydrochloride) and 0.05 M NHS (N-hydroxysuccinimide) in water. Second, in order to introduce amino groups to the surface, 1 M ethylenediamine (Fluka 03550) in water was applied. Third, a mixture of EDC (0.2 M) and 2-iminobiotin (10 mM) was applied on the surface in 25 mM Na-phosphate pH 6.5. The amount of 2-iminobiotin attached on the surface was 81 response units.\nXenavidin was injected onto the sensor chip in a 50 mM sodium carbonate buffer (pH 11.0) containing 1 M NaCl at 25°C and using a flow rate of 50 μl/min. […] The surface was regenerated between measurement cycles by injecting 20 μl of 0.5 M acetic acid followed by washing with the measurement buffer.\nBIAevaluation software v. 4.1 was used for data analysis, and a global fitting method was used to analyze the data set. A period of 20 seconds from the beginning of each injection was included in the association phase fit and the dissociation rate analysis was performed for a 60-second period starting immediately after the end of the injection."}, "[2]": {"assay": "Fluorescence spectroscopy dissociation analysis of fluorescent Bf560-biotin", "format": "binding", "method": "The Quanta Master™ spectrofluorometer (Photon Technology International Inc., Lawrenceville, NJ) with a PTI Fluorescence Master System and the software Felix 32 was used to measure the biotin-binding properties of avidin, xenavidin and streptavidin. The analyses were done in a 50 mM sodium phosphate buffer (pH 7.0) containing 650 mM NaCl at two different temperatures (25 ± 1°C and 50 ± 1°C) by measuring the reversing of quenching of the biotin-coupled fluorescent probe ArcDia™ Bf560 (ArcDia Ltd., Turku, Finland) due to competition with free biotin (100-fold molar excess) as previously described. The spectrum of Bf560-biotin in the presence and absence of avidin is shown in [Additional file 4]."}, "proteinase K": {"system": "proteinase K", "assay": "Limited proteolysis with proteinase K", "method": "The stability of xenavidin against the proteinase K enzyme, which is known to cleave the L3,4-loop of avidin [41], was tested. The assay was performed in the presence or absence of biotin as previously described by Laitinen et al.. Protein samples were taken before the enzyme treatment and after adding enzyme at time points 30 min, 1 h, 2 h, 3 h, 18 h and 22 h (data not shown), and the samples were analyzed using SDS-PAGE analysis and Coomassie Brilliant Blue (Serva, Heidelberg, Germany) staining."}, "[3]": {"settings": "2-iminobiotin chip, pH 11.0, 1 M NaCl, 25°C"}, "[4]": {"settings": "competition with free biotin (100-fold molar excess), pH 7.0"}},
  "data": [
    {"substance": "Streptavidin: bacterial biotin-binding protein from Streptomyces avidinii (Biomol GmbH); control sample", "values": [
      {"measurement": "Kd", "setting": "[1]; [3]", "result": 85, "unit": "nM"},
      {"measurement": "kass", "setting": "[1]; [3]", "result": 200000, "unit": "M⁻¹ s⁻¹"},
      {"measurement": "kdiss", "setting": "[1]; [3]", "result": 0.017, "unit": "s⁻¹"},
      {"measurement": "Dissociation rate constant at 50°C", "setting": "[2]; [4]", "result": "0.7 s^-1 (× 10^-5)"},
      {"measurement": "Release after 1 h at 50°C", "setting": "[2]", "result": 5.1, "unit": "%"}
    ]},
    {"substance": "Avidin: chicken avidin, biotin-binding protein; control sample expressed in E. coli", "values": [
      {"measurement": "Kd", "setting": "[1]; [3]", "result": 102, "unit": "nM"},
      {"measurement": "kass", "setting": "[1]; [3]", "result": 94000, "unit": "M⁻¹ s⁻¹"},
      {"measurement": "kdiss", "setting": "[1]; [3]", "result": 0.0096, "unit": "s⁻¹"},
      {"measurement": "Kd", "setting": "[1]; 2-iminobiotin functionalized chip, rounded value", "result": 100, "unit": "nM"},
      {"measurement": "Dissociation rate constant at 25°C", "setting": "[2]; 25°C, competition with free biotin (100-fold molar excess), pH 7.0", "result": "2.3 s^-1 (× 10^-5)"},
      {"measurement": "Dissociation rate constant at 50°C", "setting": "[2]; [4]", "result": "32.6 s^-1 (× 10^-5)"},
      {"measurement": "Release after 1 h at 50°C", "setting": "[2]", "result": 76.5, "unit": "%"},
      {"measurement": "stability against proteinase K", "setting": "proteinase K; absence of biotin", "result": "fragments of 10 kDa and below"},
      {"measurement": "stability against proteinase K", "setting": "proteinase K; presence of biotin", "result": "protected avidin from proteolytic cleavage"}
    ]}
  ]
}
